From ChEMBL document CHEMBL4033638, “Effect of natural and semi-synthetic cadinanes from Heterotheca inuloides on NF-κB, Nrf2 and STAT3 signaling pathways and evaluation of their in vitro cytotoxicity in human cancer cell lines” (Bioorg Med Chem, 2017) come the findings set out here.

Active and inactive are the calls of the source. The calls are words filed in the database; no cut-off is given here.

Data set [1] is described as follows: Inhibition of TNFalpha-stimulated NFkappaB (unknown origin) expressed in mouse NIH-3T3-KBFLuc cells at 50 uM after 6 hrs by luciferase reporter gene assay relative to control. The settings on record: Homo sapiens. The class given is cell-based. (In general: A reporter such as luciferase makes a cellular process visible.)
The test system of data set [2] is SK-LU-1. In words: Antiproliferative activity against human SK-LU-1 cells at 50 uM after 48 hrs by sulforhodamine B assay relative to control. The note with it: SK-LU-1, 48 h. In kind it is functional. (In general: Sulforhodamine B stains cellular protein and so reports cell mass.)
Data set [3] deals with PC-3. In words: Antiproliferative activity against human PC3 cells at 50 uM after 48 hrs by sulforhodamine B assay relative to control. In kind it is functional. The note with it: PC-3, 48 h.
In data set [4] the test system is PC-3. In words: Antiproliferative activity against human PC3 cells after 48 hrs by sulforhodamine B assay. In kind it is functional, cell-based. The settings on record: PC-3, 48 h.
Data set [5] concerns HCT-15. In words: Antiproliferative activity against human HCT15 cells after 48 hrs by sulforhodamine B assay. In kind it is functional, cell-based. The settings on record: HCT-15, 48 h.
Data set [6] in a line: Cytotoxicity against human gingival fibroblasts assessed as decrease in cell viability at 50 uM after 48 hrs by sulforhodamine B dye-based assay relative to control. The note with it: gingival fibroblast.
Data set [7] concerns HCT-15. Kind of data set: Antiproliferative activity against human HCT15 cells at 50 uM after 48 hrs by sulforhodamine B assay relative to control. The settings on record: HCT-15, 48 h. The class given is functional.
Data set [8] relates to U-251. Kind of data set: Antiproliferative activity against human U251 cells at 50 uM after 48 hrs by sulforhodamine B assay relative to control. The class given is functional. The note with it: U-251, 48 h.
Data set [9] deals with K562. Kind of data set: Antiproliferative activity against human K562 cells after 48 hrs by sulforhodamine B assay. In kind it is functional, cell-based. The note with it: K562, 48 h.
In data set [10] the test system is MCF7. In words: Antiproliferative activity against human MCF7 cells at 50 uM after 48 hrs by sulforhodamine B assay relative to control. In kind it is functional. The settings on record: MCF7, 48 h.
For data set [11], the system named is SK-LU-1. In words: Antiproliferative activity against human SK-LU-1 cells after 48 hrs by sulforhodamine B assay. In kind it is functional, cell-based. The note with it: SK-LU-1, 48 h.
The test system of data set [12] is U-251. Kind of data set: Antiproliferative activity against human U251 cells after 48 hrs by sulforhodamine B assay. The class given is functional, cell-based. The settings on record: U-251, 48 h.
Data set [13] relates to K562. In words: Antiproliferative activity against human K562 cells at 50 uM after 48 hrs by sulforhodamine B assay relative to control. In kind it is functional. The settings on record: K562, 48 h.
For data set [14], the target named is T1, Nuclear factor erythroid 2-related factor 2 (Homo sapiens) (UniProt Q16236).
T1 sequence (whole entry): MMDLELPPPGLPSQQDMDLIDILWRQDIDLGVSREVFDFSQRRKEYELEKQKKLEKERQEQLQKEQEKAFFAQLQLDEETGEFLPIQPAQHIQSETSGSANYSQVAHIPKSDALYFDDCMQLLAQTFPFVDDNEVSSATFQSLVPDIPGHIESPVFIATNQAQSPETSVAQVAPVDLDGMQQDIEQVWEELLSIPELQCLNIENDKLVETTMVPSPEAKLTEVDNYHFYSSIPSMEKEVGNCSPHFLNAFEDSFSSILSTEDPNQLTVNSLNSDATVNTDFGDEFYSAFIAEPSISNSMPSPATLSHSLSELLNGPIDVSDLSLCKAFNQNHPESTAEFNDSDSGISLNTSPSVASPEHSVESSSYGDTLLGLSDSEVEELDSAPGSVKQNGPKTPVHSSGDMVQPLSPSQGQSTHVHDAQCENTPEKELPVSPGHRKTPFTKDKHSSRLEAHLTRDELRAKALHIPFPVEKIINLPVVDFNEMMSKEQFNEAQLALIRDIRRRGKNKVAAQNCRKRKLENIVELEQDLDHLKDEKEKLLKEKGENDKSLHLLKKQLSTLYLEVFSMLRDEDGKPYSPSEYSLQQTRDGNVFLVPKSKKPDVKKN
Kind of data set: Activation of Nrf2 in human HaCaT-ARE-Luc cells at 50 uM after 6 hrs by luciferase reporter gene assay relative to control. The class given is cell-based.

In data set [15] the target is Signal transducer and activator of transcription 3 (Homo sapiens) (UniProt P40763). In words: Inhibition of IFNgamma-stimulated STAT3 (unknown origin) activation expressed in human HeLa cells at 50 uM after 6 hrs by luciferase reporter gene assay relative to control. The class given is cell-based.
Signal transducer and activator of transcription 3 (Homo sapiens), sequence (P40763 whole entry): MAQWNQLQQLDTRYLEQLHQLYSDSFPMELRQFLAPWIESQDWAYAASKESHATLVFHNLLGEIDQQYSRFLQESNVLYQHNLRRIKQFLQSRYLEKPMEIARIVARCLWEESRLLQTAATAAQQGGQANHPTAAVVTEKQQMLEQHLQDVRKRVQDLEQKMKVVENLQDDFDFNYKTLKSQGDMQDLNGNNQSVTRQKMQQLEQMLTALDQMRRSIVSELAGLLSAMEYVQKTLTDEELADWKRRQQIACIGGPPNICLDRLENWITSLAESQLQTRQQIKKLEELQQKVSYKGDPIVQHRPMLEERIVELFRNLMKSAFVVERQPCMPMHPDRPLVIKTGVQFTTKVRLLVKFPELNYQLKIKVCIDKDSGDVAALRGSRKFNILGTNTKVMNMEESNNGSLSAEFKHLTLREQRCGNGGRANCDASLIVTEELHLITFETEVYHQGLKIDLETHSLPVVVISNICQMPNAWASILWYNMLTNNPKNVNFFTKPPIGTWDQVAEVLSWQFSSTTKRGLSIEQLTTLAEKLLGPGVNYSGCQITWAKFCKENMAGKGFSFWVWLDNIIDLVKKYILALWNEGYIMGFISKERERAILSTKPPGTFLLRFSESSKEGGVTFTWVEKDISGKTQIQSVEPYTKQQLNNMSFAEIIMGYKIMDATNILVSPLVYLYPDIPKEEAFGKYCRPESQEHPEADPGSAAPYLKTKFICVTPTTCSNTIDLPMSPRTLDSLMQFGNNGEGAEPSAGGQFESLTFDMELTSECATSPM
Data set [16] has as its system MCF7. In words: Antiproliferative activity against human MCF7 cells after 48 hrs by sulforhodamine B assay. The class given is functional, cell-based. The note with it: MCF7, 48 h.
Data set [17] has as its system HaCaT. In words: Antioxidant activity in human HaCaT cells assessed as inhibition of TBHP-induced ROS accumulation by measuring ROS level at 100 uM preincubated with cells followed by TBHP addition by CM-H2DCFDA dye-based fluorescence assay relative to control. Details: scale not given: the % may be the effect or the level left. In kind it is functional.
In data set [18] the test system is HaCaT. Kind of data set: Antioxidant activity in human HaCaT cells assessed as inhibition of TBHP-induced ROS accumulation by measuring ROS level at 50 uM preincubated with cells followed by TBHP addition by CM-H2DCFDA dye-based fluorescence assay relative to control. The class given is functional. More on the design: scale not given: the % may be the effect or the level left.

The test system of data set [19] is HaCaT. In words: Induction of ROS accumulation in human HaCaT cells at 10 to 100 uM by CM-H2DCFDA dye-based fluorescence assay. In kind it is functional, cell-based.
The species entered for a further data set is Mus musculus. In words: Inhibition of IKK in mouse NIH-3T3-KBF-Luc cells assesed as downregulation of TNFalpha-stimulated phospho-IkappaBalpha protein expression levels at 10 to 100 uM preincubated for 15 mins followed by TNFalpha stimulation for 20 mins by Western blot analysis. (Immunoblotting shows a protein as a band on a membrane.)
A further data set has as its system NIH3T3. In words: Cytotoxicity against mouse NIH/3T3 cells infected with lentivirus encoding nuclear restricted red fluorescent protein assessed as reduction in cell viability up to 100 uM after 6 hrs by microscopic method. The class given is cell-based. The note with it: nih3t3, 6 h.
The subject of data set [20] is HaCaT. Kind of data set: Antioxidant activity in human HaCaT cells assessed as inhibition of TBHP-induced ROS accumulation by measuring ROS level at 75 uM preincubated with cells followed by TBHP addition by CM-H2DCFDA dye-based fluorescence assay relative to control. In kind it is functional. More on the design: scale not given: the % may be the effect or the level left.

The nature of data set [21]: Inhibition of TNFalpha-stimulated NFkappaB (unknown origin) expressed in mouse NIH-3T3-KBFLuc cells preincubated for 15 mins followed by TNFalpha stimulation for 6 hrs by luciferase reporter gene assay. The class given is cell-based. The note with it: Homo sapiens.
Data set [22] deals with HaCaT. In words: Antioxidant activity in human HaCaT cells assessed as inhibition of TBHP-induced ROS accumulation by measuring ROS level at 25 uM preincubated with cells followed by TBHP addition by CM-H2DCFDA dye-based fluorescence assay relative to control. In kind it is functional. More on the design: scale not given: the % may be the effect or the level left.
For data set [23], the system named is HaCaT. Kind of data set: Antioxidant activity in human HaCaT cells assessed as inhibition of TBHP-induced ROS accumulation by measuring ROS level at 10 uM preincubated with cells followed by TBHP addition by CM-H2DCFDA dye-based fluorescence assay relative to control. The class given is functional. Details: scale not given: the % may be the effect or the level left.

Data set [24] in a line: Cytotoxicity against human gingival fibroblasts assessed as decrease in cell viability at 50 uM after 48 hrs by sulforhodamine B dye-based assay. The note with it: gingival fibroblast.

For the molecule `CC1=CC[C@H](C(C)C)c2cc(C)c(OC(=O)Nc3ccccc3)cc21`, the values for the inhibition in data set [1] and in data set [15] were 4.2% and 3.3%, respectively. The inhibition at 50 µM was found to be 100% with SK-LU-1 [2]; 93.2% with PC-3 [3]; 92% in the data set on HCT-15 [7]; 100% with U-251 [8]; 75.1% with MCF7 [10]; 92.6% in the data set with K562 [13]. Also, the half-maximal inhibitory concentration (IC50) turned out to be 7.93 µM with PC-3 [4]; 0.03 µM with HCT-15 [5]; 0.3 µM in the data set with K562 [9]; 0.12 µM in the data set on SK-LU-1 [11]; 0.46 µM in the data set with U-251 [12]; 4.05 µM with MCF7 [16]. The Activity in data set [6] turned out to be 38.24%. The molecule further came in with a fold change (FC) in data set [14] of 1.6.

As to `CC1=CC[C@H](C(C)C)c2cc(C)c(OC(=O)c3ccc([N+](=O)[O-])cc3)cc21`, the inhibition in data set [1] is 7.2%; in [15], 1.6%. For the same molecule, the inhibition at 50 µM was found to be 47.5% in the data set with SK-LU-1 [2]; 36.7% in the data set with PC-3 [3]; 67.8% with HCT-15 [7]; 16.8% with U-251 [8]; 72.9% with MCF7 [10]; 89% with K562 [13]. Moreover, the IC50 in the data set on PC-3 [4] was 42.5 µM; in the data set on HCT-15 [5], 56.3 µM; in the data set with SK-LU-1 [11], 42.9 µM. Moreover, in [14], the fold change (FC) was determined as 8.5.

As for `CC1=CC[C@H](C(C)C)c2cc(C)c(OC(=O)c3ccc(C)cc3)cc21`, the figures for the inhibition in data set [1] and in data set [15] were 76% and 3.1%, respectively. For the same molecule, the Activity is 25.9% in the data set on HaCaT [17]; 55.8% with HaCaT [18]; “Non-Toxic” with NIH3T3; 52% in the data set with HaCaT [20]; 64.5% with HaCaT [22]; 74.7% with HaCaT [23]. The inhibition at 50 µM in the data set on SK-LU-1 [2] was 85.4%; in the data set with PC-3 [3], 49.6%; in the data set with HCT-15 [7] it was 78.9%; with U-251 [8], 67.7%; with MCF7 [10], 65%; in the data set with K562 [13], 100%. In addition, in the data set with HaCaT [19], the result was inactive. The inhibition entry in the data set listed under Mus musculus is “Active”. The 50% inhibitory concentration (IC50) in the data set with HCT-15 [5] came to 40.3 µM; in the data set on K562 [9], 30.9 µM; in the data set on SK-LU-1 [11] it was 33.9 µM; in data set [21], 47.1 µM. Besides, the fold change (FC) in [14] worked out at 9.4.

Turning to `Cc1cc2c(C(C)C)ccc(C)c2cc1O`, the inhibition in [1] stood at 61.5%; in data set [15] it was 3.5%. In addition, the Activity entry with NIH3T3 is “Non-Toxic”. Moreover, the fold change (FC) in data set [14] was 1.7. Also, in [21], it took 16.5 µM to reach half-maximal inhibition (IC50).

For the molecule `Cc1cc2c(C(C)C)ccc(C)c2cc1OC(=O)Nc1ccccc1`, the figures for the inhibition in data set [1] and in [15] were 13.3% and 3%, respectively. Besides, the inhibition at 50 µM with SK-LU-1 [2] turned out to be 90.4%; in the data set on PC-3 [3], 44.7%; with HCT-15 [7], 84.7%; with U-251 [8], 100%; in the data set with MCF7 [10], 100%; in the data set with K562 [13] it was 100%. Moreover, the IC50 with PC-3 [4] stood at 8.62 µM; with HCT-15 [5] it was 3.88 µM; in the data set with K562 [9], 14 µM; in the data set with SK-LU-1 [11], 10.1 µM; in the data set on U-251 [12], 15.8 µM. Further, in data set [14], the fold change (FC) amounted to 1.4. In addition, the Activity result in data set [24] is recorded as “Non-Toxic”.

What is called inhibition is the relative decrease from the control value, in per cent. What is called IC50 is the concentration at which inhibition is half-maximal.
